Entries after “also recorded” stand apart in the source; their conditions may differ.
Legend:
Format in all cases: cell-based, human
A549 cells = assay: Immunoblot of STING in KL cell lines with LKB1 reconstitution with or without DNMT inhibitor; settings: A549 cells (KL DNMT high) with LKB1 reconstitution
Description: FIGS. 16A to 16C. FIG. 16A: Immunoblot of the indicated proteins in KL cell lines transduced with the indicated vector. FIG. 16B: Correlation between STING and DNMT1 expression in KL cell lines. FIG. 16C: Immunoblot of the indicated proteins in KL cell lines transduced with the indicated vector with or without 100 nM 5-aza-2′-deoxycytidine (DAC) treatment for 7 days.

H69AR cells [1] = assay: IFNγ pulsed H69AR cells chased in media with drug; pSTAT1 immunoblot, CXCL10/ERV qRT-PCR, CXCL10 ELISA; settings: 10 min IFNγ pulse, 24 h chase, 1 μM
Description: For IFN pulse experiments, cells were pulsed 10 minutes with IFN-γ 200 ng/mL or 10 ng/mL), IFN-α 10 000 U/mL), or IFN-β 10 000 U/mL), extensively washed, and chased in fresh media for an additional 24, 48 or 72 hours. To test drug effects on gene expression or protein secretion, IFN-γ pulsed H69AR cells were treated with DMSO, 1 μM MRT67307 or 100 nM Ruxolitinib for 24, 48 and 72 hours. Proteome Profiler™ Human Cytokine Array Kit (#ARY005B) and CXCL10 ELISA (#DIP100) (R&D Systems, Minneapolis, MN), were performed according to manufacturer's instructions. For cytokine array, conditioned media (CM) from SCLC cells at basal conditions was collected after 48 and 72 hours. For CXCL10 ELISA, CM from IFN-γ pulsed cells was collected after 72 hours. Total cellular RNA was extracted using the miRNeasy Mini Kit (Qiagen, Hilden, Germany) according to manufacturer's instructions. After extraction, 1 μg total RNA was used to generate cDNA with the SuperScript III First-Strand Synthesis SuperMix for qRT-PCR kit (Thermo Fisher Scientific, Waltham, MA). Quantitative reverse transcription PCR (qRT-PCR) of the indicated genes was performed using SYBR green PCR Master Mix (Applied Biosystems, Foster City, CA) and the Applied Biosystems 7300 Fast real-time PCR system and software. The relative expression was normalized with the expression of the housekeeping gene 36B4.

[2] = system: H69AR cells, SPARCS high cell lines; assay: IFN pulse-chase of SCLC and other cancer cell lines; qRT-PCR, immunoblot
Description: To test drug effects on gene expression or protein secretion, IFN-γ pulsed H69AR cells were treated with DMSO, 1 μM MRT67307 or 100 nM Ruxolitinib for 24, 48 and 72 hours.
(§1) Protein was isolated from cell lines and measured by BCA (Pierce Biotechnology). Protein extracts were subjected to polyacrylamide gel electrophoresis using the 4%-12% NuPAGE gel system (Invitrogen, Carlsbad, CA), transferred to PVDF (Millipore) membranes, and immunoblotted using antibodies that specifically recognize TBK1 (#3013), S172 pTBK1 (#5483), pERK1/2 (#4370), ERK1/2 (#9107), S473 pAKT (#4060), AKT (#9272), S396 pIRF3 (#4947), IRF3 (#4302), Y701 pSTAT1 (#9171), STAT1 (#9172), AXL (#8661), EZH2 (#5246), STING (#13647), MAVS (#3993), E-Cadherin (#3195), Vimentin (#5741), β-Actin (#4970), Tubulin (#2144) (Cell Signaling Technologies, Danvers, MA) and IKKε (#14907) (Sigma-Aldrich, St. Louis, MO).
(§2) Total cellular RNA was extracted using the miRNeasy Mini Kit (Qiagen, Hilden, Germany) according to manufacturer's instructions. After extraction, 1 μg total RNA was used to generate cDNA with the SuperScript III First-Strand Synthesis SuperMix for qRT-PCR kit (Thermo Fisher Scientific, Waltham, MA). Quantitative reverse transcription PCR (qRT-PCR) of the indicated genes was performed using SYBR green PCR Master Mix (Applied Biosystems, Foster City, CA) and the Applied Biosystems 7300 Fast real-time PCR system and software. The relative expression was normalized with the expression of the housekeeping gene 36B4.

H69 cells [3] = assay: EZH2 inhibition of H69 cells followed by IFNγ exposure; SPARCS qRT-PCR and cytokine profiling; settings: for reactivation / de-repression of SPARCS ERVs: 5 μM for 6 days, then IFNγ 24 h
Description: For EZH2 inhibition experiments, H69 cells were treated with 5 μM GSK126 for 6 days. Drug was replenished every 3 days with both suspension and adherent cells carried each time. After the GSK126 treatment period, equal numbers of DMSO-treated and GSK126-treated cells were exposed to either H2O or 200 ng/mL IFN-γ for 24 hours before harvesting of RNA or conditioned media (CM).
(§3) Multiplex assays were performed utilizing the bead-based immunoassay approach Bio-Plex Pro™ Human Cytokine 40-plex Assay (Cat #171AK99MR2) on a Bio-plex 200 system (Cat #171000201) (Bio-Rad Laboratories, Hercules, CA) and the Human Cytokine/Chemokine Maganetic Bead Panel (Cat #HCYTMAG-60K-PX30) on a Luminex MAGPIX system (Merck Millipore, Billerica, MA). Conditioned media concentration levels [pg/ml] of each protein were derived from 5-parameter curve fitting models. Fold changes relative to the corresponding control were calculated and plotted as log 2FC. Lower and upper limits of quantitation (LLOQ/ULOQ) were imputed from standard curves for cytokines above or below detection.
as §2

H69 cells [4] = assay: Immunoblot of STING in H69 cells after GSK126 treatment
Description: Immunoblot of STING, histone H3K27me3 and β-actin levels in H69 cells after GSK126 (EZH2 inhibitor) treatment at the indicated concentrations and for the indicated number of days.
as §1

TNBC cell lines = assay: CXCL10 secretion by TNBC cell lines treated with STING agonist; settings: all TNBC cell lines, relative to a control
Description: TNBC cell lines were also assayed for their responsiveness to the STING agonist AduroS100. Cells were treated with AduroS100 or a control and CXCL10 levels secreted into the supernatant were measured.

NSCLC PDOTS = assay: Ex vivo culture of patient-derived organotypic tumor spheroids (PDOTS); cytokine profiling and viability; settings: in contrast to NSCLC-2; for production of multiple cytokines/chemokines, especially CXCL10: NSCLC-1 PDOTS (SPARCS high features); for sensitization to ex vivo PD-1 blockade with nivolumab: NSCLC-1 PDOTS, viability Day 6
Description: PDOTS from human NSCLC resection specimens were generating according to the recent publication^21. Briefly, fresh tumor specimens were minced and resuspended in media with collagenase type IV (Life Technologies, Carlsbad, CA). After digestion, samples were strained over 100 μm filter and 40 μm filters to generate S1 (>100 μm), S2 (40-100 μm), and S3 (<40 μm) spheroid fractions. S2 spheroid fraction was pelleted and resuspended in type I rat tail collagen (Corning, Corning, NY) at a concentration of 2.5 mg/mL. The spheroid-collagen mixture was then injected into the center gel region of the 3D microfluidic culture device. Collagen hydrogels containing PDOTS were hydrated with media and treated with anti-PD-1 (Nivolumab, 100 μg/mL), IFNγ (200 ng/mL), Poly (I:C) (0.5 μg/mL) or combination (Nivolumab+IFNγ Nivolumab+Poly (I:C)). The number of Live/Dead cells in each treatment condition was determined by Trypan Blue Exclusion method and plotted as percentage of viability.
as §3

H69AR cells [5] = assay: Poly(I:C) transfection of H69AR cells; qRT-PCR; settings: 72 h following transfection
Description: as §2
For Poly(I:C) dsRNA treatment experiments, H69ARsgCTRL and H69ARsgMAVS cells were plated in RPMI media, transfected with 0.5 μg/mL Poly(I:C) HMW (InvivoGen, Sand Diego, CA) using XtremeGene HP transfection reagent (Sigma-Aldrich, St. Louis, MO) and cultured for 72 hours. On day 3 after transfection, conditioned media was recovered and CXCL10 protein expression was quantified using Human CXCL10/IP-10 Quantikine ELISA kit (R&D Systems, Minneapolis, MN). RNA was extracted and expression levels of relevant genes were analyzed by qRT-PCR.

Molecule: Nc1ncn([C@H]2C[C@H](O)[C@@H](CO)O2)c(=O)n1 [DNMT inhibitor, 5-aza-2′-deoxycytidine]
- STING expression (A549 cells): able to restore STING expression

Molecule: O=C(NCCCNc1nc(Nc2cccc(CN3CCOCC3)c2)ncc1C1CC1)C1CCC1 [MRT67307]
- effect on downstream CXCL10 expression (H69AR cells [1]): partially inhibited

Molecule: IFNα
- SPARCS upregulation (MLT1C49, MLT1A) ([2]; H69AR cells, 10 min pulse with chase): SPARCS upregulation

Molecule: CC[C@H](C)n1cc(C)c2c(C(=O)NCc3c(C)cc(C)[nH]c3=O)cc(-c3ccc(N4CCNCC4)nc3)cc21 [GSK126]
- reactivation / de-repression of SPARCS ERVs (H69 cells [3]): induced their reactivation
- reactivation / de-repression of SPARCS ERVs (H69 cells [3]; listed as EZH2 inhibitor): de-repressed the same SPARCS as in H69AR cells
- IFNγ induced cytokine secretion (H69 cells [3]; treatment over 6 days): enhanced
- STING protein expression (H69 cells [4]): induces STING protein expression

Molecule: Nc1ncnc2c1ncn2[C@@H]1O[C@@H]2COP(O)(=S)O[C@@H]3C(O)[C@@H](COP(O)(=S)O[C@H]2[C@H]1O)O[C@H]3n1cnc2c(N)ncnc21 (some centres unmarked) [AduroS100]
- CXCL10 levels secreted into the supernatant (TNBC cell lines): elevated levels; also recorded: increased CXCL10 production

Molecule: Poly(I:C)
- production of multiple cytokines/chemokines, especially CXCL10 (NSCLC PDOTS): markedly enhanced; also recorded: markedly enhances CXCL10 production
- sensitization to ex vivo PD-1 blockade with nivolumab (NSCLC PDOTS): sensitized; also recorded: sensitizes them to PD-1 blockade
- SPARCS upregulation (H69AR cells [5]): SPARCS upregulation
- induction of type I/II IFNs (H69AR cells [5]): Induction of type I/II IFNs was also confirmed

B1: IFNγ: Recombinant human IFN-γ protein from R&D Systems (protein, UniProt P01579 24-161, looked up)
Interferon gamma: QDPYVKEAENLKKYFNAGHSDVADNGTLFLGILKNWKEESDRKIMQSQIVSFYFKLFKNFKDDQSIQKSVETIKEDMNVKFFNSNKKKRDDFEKLTNYSVTDLNVQRKAIHELIQVMAELSPAAKTGKRKRSQMLFRG
- production of multiple cytokines/chemokines, especially CXCL10 (NSCLC PDOTS): markedly enhanced
- sensitization to ex vivo PD-1 blockade with nivolumab (NSCLC PDOTS): sensitized
- pTBK1, pIRF3 and pSTAT1 activation ([2]; H69AR but not H69 cells, pulse treatment): hyperactivated and sustained
- induction of TRIM22 and MLT1C49 ([2]; H69AR cells, 10 minute pulse): marked induction
- MLT1C49, CXCL10 and PD-L1 expression ([2]; SPARCS high cells relative to SPARCS low cells, pulse treatment): significantly induced
